Measured values published in ChEMBL document CHEMBL1140684, “Phenylimidazole derivatives as new inhibitors of bacterial enoyl-ACP reductase FabK” (Bioorg Med Chem Lett, 2007).
Values after ≈ are worked out from the molar mass of the structure shown.

Key:
Streptococcus pneumoniae = assay: Antibacterial activity against Streptococcus pneumoniae KU197; assay type: functional
[1] = biological target: T1, Enoyl-(Acyl-carrier-protein) reductase (Streptococcus pneumoniae, UniProt Q9FBC5); assay: Inhibition of Streptococcus pneumoniae KU197 FabK
T1 sequence (Q9FBC5 whole entry): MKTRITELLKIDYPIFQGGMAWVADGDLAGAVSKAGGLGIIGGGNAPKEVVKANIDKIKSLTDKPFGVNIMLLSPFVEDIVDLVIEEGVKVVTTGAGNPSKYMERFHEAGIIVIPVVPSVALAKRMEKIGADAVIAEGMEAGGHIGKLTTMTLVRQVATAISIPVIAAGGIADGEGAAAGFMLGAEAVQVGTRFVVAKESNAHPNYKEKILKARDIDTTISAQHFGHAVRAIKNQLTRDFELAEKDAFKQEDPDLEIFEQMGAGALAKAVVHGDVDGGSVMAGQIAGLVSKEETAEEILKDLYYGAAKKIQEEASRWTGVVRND

[2] = Inhibition of Escherichia coli FabI

| Compound | MIC (Streptococcus pneumoniae) | IC50 [1] | IC50 [2] |
| --- | --- | --- | --- |
| CS(=O)(=O)c1ccc2nc(NC(=O)NCc3cccnc3)sc2c1 | > 32 µg/mL | 24 µM | – |
| O=C(Nc1nc2ccccc2s1)OCc1nc2ccccc2[nH]1 | > 32 µg/mL | > 32 µM | – |
| COc1ccc2sc(NC(=O)NCc3nc4ccccc4[nH]3)nc2c1 | – | > 32 µM | > 32 µM |
| CS(=O)(=O)c1ccc2nc(NC(=O)NCc3nc4ccccc4[nH]3)sc2c1 | 4 µg/mL (≈ 9.96 µM) | 0.76 µM | > 32 µM |
| CS(=O)(=O)c1ccc2nc(NC(=O)NCc3nc(-c4ccccc4)c[nH]3)sc2c1 | 0.5 µg/mL (≈ 1.17 µM) | 0.14 µM | > 32 µM |
| O=C(NCc1nc2ccccc2[nH]1)Nc1nc2ccccc2s1 | 32 µg/mL (≈ 99 µM) | 28 µM | > 32 µM |
| CS(=O)(=O)c1ccc2nc(NC(=O)NCc3cccs3)sc2c1 | > 32 µg/mL | 24 µM | – |
| O=C(O)CSc1nc2ccccc2[nH]1 | – | > 32 µM | – |
| COc1ccc2nc(NC(=O)NCc3nc4ccccc4[nH]3)sc2c1 | 16 µg/mL (≈ 45.3 µM) | 7.6 µM | > 32 µM |

Continued, in another order:

| MIC (Streptococcus pneumoniae) | IC50 [1] | Compound | IC50 [2] |
| --- | --- | --- | --- |
| – | > 32 µM | COc1cccc2sc(NC(=O)NCc3nc4ccccc4[nH]3)nc12 | > 32 µM |
| > 32 µg/mL | > 32 µM | O=C(CSc1nc2ccccc2[nH]1)Nc1nc2ccc(C(=O)O)cc2s1 | – |
| > 32 µg/mL | > 32 µM | O=C(CSc1nc2ccccc2[nH]1)Nc1nc2ccccc2s1 | – |
| – | > 32 µM | Nc1nc2ccc(C(=O)O)cc2s1 | – |
